Holding throughout (type): in vivo
For test [1], the system named is HORMU: Hordeum murinum. The experiment in a line: Pre-emergence herbicidal effect. As to conditions: pre-emergence; dosage 320 g/ha. The gist of the method: (§1)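 Compounds applied before emergence onto soil over sown seeds (WP or EC, 0.5% additive, 600 l/ha water); greenhouse culture about 3 weeks, then percent activity judged by eye against untreated plants.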
Test [2] has as its system AMARE: Amaranthus retroflexus. The experiment in a line: Pre-emergence herbicidal effect. As to conditions: pre-emergence; dosage 320 g/ha. The gist of the method:
as §1

Test [3] relates to VIOTR: Viola tricolor. The experiment in a line: Pre-emergence herbicidal effect. As to conditions: dosage 320 g/ha. The gist of the method:
as §1

The test system of test [4] is POLCO: Polygonum convolvulus. Kind of test: Pre-emergence herbicidal effect. As to conditions: dosage 320 g/ha. The gist of the method:
as §1

The subject of test [5] is ECHCG: Echinochloa crus-galli. The experiment in a line: Pre-emergence herbicidal effect. Particulars: pre-emergence; dosage 320 g/ha. A digest of the protocol: as §1
The subject of test [6] is AVEFA: Avena fatua. Kind of test: Pre-emergence herbicidal effect. As to conditions: dosage 320 g/ha. The gist of the method:
as §1

The test system of test [7] is SETVI: Setaria viridis. Kind of test: Pre-emergence herbicidal effect. As to conditions: pre-emergence; dosage 320 g/ha. A digest of the protocol: as §1
Test [8] relates to LOLRI: Lolium rigidum. Kind of test: Pre-emergence herbicidal effect. As to conditions: dosage 320 g/ha. The gist of the method: as §1
For test [9], the system named is VERPE: Veronica persica. Kind of test: Pre-emergence herbicidal effect. As to conditions: dosage 320 g/ha. The gist of the method:
as §1

Test [10] concerns ALOMY: Alopecurus myosuroides. Kind of test: Pre-emergence herbicidal effect. Particulars: pre-emergence; dosage 320 g/ha. The gist of the method: as §1
For test [11], the system named is ABUTH: Abutilon theophrasti. Kind of test: Pre-emergence herbicidal effect. Particulars: dosage 320 g/ha. A digest of the protocol:
as §1

The subject of test [12] is PHBPU: Ipomoea purpurea. The experiment in a line: Pre-emergence herbicidal effect. As to conditions: dosage 320 g/ha. The gist of the method:
as §1

Test [13] relates to MATIN: Matricaria inodora. Kind of test: Pre-emergence herbicidal effect. As to conditions: pre-emergence; dosage 320 g/ha. A digest of the protocol: as §1
Test [14] relates to STEME: Stellaria media. The experiment in a line: Pre-emergence herbicidal effect. Particulars: pre-emergence; dosage 320 g/ha. A digest of the protocol: as §1
Test [15] relates to AMARE: Amaranthus retroflexus. The experiment in a line: Post-emergence herbicidal effect. Particulars: dosage 320 g/ha. A digest of the protocol: (§2)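 Visual % activity against untreated controls, where 100% means plants died and 0% means no difference, rated about 3 weeks after treatment. Plants were sprayed at the one-leaf stage with WP or EC formulations diluted in water plus 0.5% additive, at 600 l/ha.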

In test [16] the test system is VIOTR: Viola tricolor. Kind of test: Post-emergence herbicidal effect. As to conditions: dosage 320 g/ha. A digest of the protocol: as §2
The subject of test [17] is ECHCG: Echinochloa crus-galli. The experiment in a line: Post-emergence herbicidal effect. Particulars: dosage 320 g/ha. The gist of the method:
as §2

Test [18] relates to SETVI: Setaria viridis. The experiment in a line: Post-emergence herbicidal effect. Particulars: dosage 320 g/ha. A digest of the protocol: as §2
For test [19], the system named is VERPE: Veronica persica. The experiment in a line: Post-emergence herbicidal effect. Particulars: dosage 320 g/ha. The gist of the method:
as §2

The subject of test [20] is ABUTH: Abutilon theophrasti. Kind of test: Post-emergence herbicidal effect. Particulars: dosage 320 g/ha. A digest of the protocol: as §2
Test [21] has as its system STEME: Stellaria media. Kind of test: Post-emergence herbicidal effect. As to conditions: dosage 320 g/ha. A digest of the protocol:
as §2

`Cc1ccc2c(c1)[C@H](Nc1ncc(C(C)(O)C(F)(F)F)cn1)[C@@H](C)C2` (stereo partly drawn) [Example 1.11]: the “Herbicidal action against HORMU” value in test [1] stood at 100%. For the same molecule, the “Herbicidal action against AMARE” value in [2] and in test [15] was 100% each time. The “Herbicidal action against VIOTR” value in test [3] was 100%; in [16], 90%. Also, the “Herbicidal action against POLCO” value in test [4] came to 100%. The “Herbicidal action against ECHCG” value in [5] and in test [17] was 100% in each case. In addition, in test [6], the “Herbicidal action against AVEFA” value was 100%. For the same molecule, the “Herbicidal action against SETVI” value in test [7] and in [18] was 100% each time. Moreover, in test [8], the “Herbicidal action against LOLRI” value turned out to be 100%. Besides, the results for the “Herbicidal action against VERPE” value in test [9] and in test [19] were 100% and 90%, respectively. Further, the “Herbicidal action against ALOMY” value in [10] was 100%. Besides, the entries for the “Herbicidal action against ABUTH” value in test [11] and in test [20] were 100% and 90%, respectively. Also, the “Herbicidal action against PHBPU” value in [12] is on record as 80%. Also, in [13], the “Herbicidal action against MATIN” value was 100%. Moreover, the “Herbicidal action against STEME” value in test [14] and in test [21] was 100% throughout.
Consider `CCC(C)(O)c1cnc(N[C@H]2c3cc(C)ccc3C[C@@H]2C)nc1` (stereo partly drawn) [Example 1.14], for which the “Herbicidal action against HORMU” value in [1] was 100%. Besides, the “Herbicidal action against AMARE” value in test [2] and in [15] was 100% in each case. The “Herbicidal action against VIOTR” value in [3] is recorded as 100%; in [16], 90%. Also, in test [4], the “Herbicidal action against POLCO” value is 100%. The “Herbicidal action against ECHCG” value in [5] and in test [17] was 100% each time. Besides, the “Herbicidal action against AVEFA” value in test [6] came to 100%. For the same molecule, the “Herbicidal action against SETVI” value in [7] was determined as 100%; in test [18], 90%. Also, the “Herbicidal action against LOLRI” value in test [8] was found to be 100%. For the same molecule, the “Herbicidal action against VERPE” value in test [9] is 100%; in test [19], 90%. For the same molecule, the “Herbicidal action against ALOMY” value in [10] is 100%. Moreover, the “Herbicidal action against ABUTH” value in [11] came to 100%; in test [20] it was 90%. In test [12], the “Herbicidal action against PHBPU” value was found to be 100%. Further, the “Herbicidal action against MATIN” value in [13] is 100%. The “Herbicidal action against STEME” value in [14] and in test [21] was 100% throughout.
Take `C=C(C)COC(C)(C)c1cnc(N[C@H]2c3cc(C)ccc3C[C@@H]2C)nc1` [Example 1.63]: in test [1], the “Herbicidal action against HORMU” value is listed as 90%. The “Herbicidal action against AMARE” value in [2] and in test [15] was 100% each time. Further, the “Herbicidal action against VIOTR” value in test [3] is given as 100%; in [16], 90%. In [4], the “Herbicidal action against POLCO” value was 100%. In addition, the “Herbicidal action against ECHCG” value in test [5] and in test [17] was 100% in each case. In [6], the “Herbicidal action against AVEFA” value was found to be 90%. Moreover, the “Herbicidal action against SETVI” value in test [7] and in test [18] was 100% in each case. Moreover, the “Herbicidal action against LOLRI” value in [8] worked out at 100%. In addition, the “Herbicidal action against VERPE” value in test [9] was 100%; in [19], 90%. Further, in test [10], the “Herbicidal action against ALOMY” value worked out at 100%. Further, the “Herbicidal action against ABUTH” value in test [11] came to 100%; in test [20], 90%. The “Herbicidal action against PHBPU” value in test [12] worked out at 100%. In test [13], the “Herbicidal action against MATIN” value is on record as 100%. Moreover, the “Herbicidal action against STEME” value in [14] worked out at 100%; in test [21], 90%.
With `COC(C)(C)c1cnc(N[C@H]2c3cc(C)ccc3C[C@@H]2C)nc1` [Example 1.24], in test [1], the “Herbicidal action against HORMU” value came out at 100%. For the same molecule, the figures for the “Herbicidal action against AMARE” value in test [2] and in test [15] were 100% and 90%, respectively. Moreover, the figures for the “Herbicidal action against VIOTR” value in [3] and in [16] were 100% and 90%, respectively. In addition, the “Herbicidal action against POLCO” value in test [4] amounted to 100%. Moreover, the “Herbicidal action against ECHCG” value in test [5] and in test [17] was 100% throughout. Also, the “Herbicidal action against AVEFA” value in test [6] is on record as 100%. The “Herbicidal action against SETVI” value amounted to 100% in test [7] and 90% in [18]. Also, the “Herbicidal action against LOLRI” value in test [8] turned out to be 100%. Moreover, the “Herbicidal action against VERPE” value was 100% in test [9] and 90% in test [19]. Moreover, in test [10], the “Herbicidal action against ALOMY” value turned out to be 100%. Also, the “Herbicidal action against ABUTH” value came to 100% in test [11] and 90% in [20]. Also, in [12], the “Herbicidal action against PHBPU” value is 90%. In [13], the “Herbicidal action against MATIN” value is 100%. The “Herbicidal action against STEME” value in test [14] and in test [21] was 100% each time.
In the case of `CCc1ccc2c(c1)[C@H](Nc1ncc(C(C)(C)O)cn1)CC2` [Example 1.31], in [1], the “Herbicidal action against HORMU” value was 100%. The “Herbicidal action against AMARE” value in test [2] and in test [15] was 100% throughout. In addition, the “Herbicidal action against VIOTR” value turned out to be 100% in test [3] and 90% in [16]. For the same molecule, the “Herbicidal action against POLCO” value in [4] is listed as 100%. In addition, the “Herbicidal action against ECHCG” value in test [5] and in test [17] was 100% each time. Moreover, the “Herbicidal action against AVEFA” value in test [6] was found to be 100%. Also, the “Herbicidal action against SETVI” value in test [7] was 100%; in test [18] it was 90%. Further, in test [8], the “Herbicidal action against LOLRI” value stood at 100%. Moreover, the entries for the “Herbicidal action against VERPE” value in test [9] and in [19] were 100% and 90%, respectively. Moreover, the “Herbicidal action against ALOMY” value in test [10] came out at 100%. Moreover, the “Herbicidal action against ABUTH” value in test [11] was 100%; in [20], 90%. Further, the “Herbicidal action against PHBPU” value in test [12] amounted to 100%. Moreover, the “Herbicidal action against MATIN” value in test [13] came to 100%. Also, the “Herbicidal action against STEME” value in [14] and in test [21] was 100% each time.
As for `CCc1ccc2c(c1)[C@H](Nc1ncc(C(C)O)c(C)n1)CC2` (stereo partly drawn) [Example 1.50], the “Herbicidal action against HORMU” value in test [1] stood at 90%. The “Herbicidal action against AMARE” value is 100% in test [2] and 90% in test [15]. In addition, the “Herbicidal action against VIOTR” value in test [3] is listed as 100%; in test [16], 90%. Moreover, in test [4], the “Herbicidal action against POLCO” value came out at 100%. Further, the “Herbicidal action against ECHCG” value in test [5] and in test [17] was 100% each time. Also, in test [6], the “Herbicidal action against AVEFA” value was determined as 100%. The “Herbicidal action against SETVI” value in [7] came out at 100%; in test [18], 90%. The “Herbicidal action against LOLRI” value in [8] is 100%. Also, the figures for the “Herbicidal action against VERPE” value in test [9] and in test [19] were 100% and 90%, respectively. In addition, the “Herbicidal action against ALOMY” value in test [10] is 100%. Further, the “Herbicidal action against ABUTH” value in test [11] amounted to 100%; in test [20] it was 80%. Moreover, the “Herbicidal action against PHBPU” value in [12] worked out at 100%. The “Herbicidal action against MATIN” value in [13] turned out to be 100%. The “Herbicidal action against STEME” value in test [14] and in [21] was 100% each time.
Turning to `Cc1ccc2c(c1)[C@H](Nc1ncc(C(C)(C)O)cn1)CC2` [Example 1.5], the “Herbicidal action against HORMU” value in test [1] is listed as 100%. The “Herbicidal action against AMARE” value in [2] and in test [15] was 100% in each case. Moreover, the entries for the “Herbicidal action against VIOTR” value in test [3] and in [16] were 100% and 90%, respectively. In addition, the “Herbicidal action against POLCO” value in test [4] stood at 100%. Besides, the “Herbicidal action against ECHCG” value in [5] and in [17] was 100% throughout. In addition, in [6], the “Herbicidal action against AVEFA” value was determined as 100%. For the same molecule, the “Herbicidal action against SETVI” value in [7] came to 100%; in [18], 90%. Besides, in test [8], the “Herbicidal action against LOLRI” value is reported as 100%. Besides, the “Herbicidal action against VERPE” value came to 100% in test [9] and 90% in test [19]. The “Herbicidal action against ALOMY” value in [10] came out at 100%. For the same molecule, the “Herbicidal action against ABUTH” value in test [11] and in test [20] was 100% each time. Further, the “Herbicidal action against PHBPU” value in test [12] was determined as 100%. For the same molecule, the “Herbicidal action against MATIN” value in [13] is on record as 100%. The “Herbicidal action against STEME” value in [14] and in test [21] was 100% in each case.
